Patent publication US12448368B2, “Indole compounds as androgen receptor modulators” (NIDO BIOSCIENCES, INC., priority 2020, dated 2025)

biological target: T1, androgen receptor (AR) (Homo sapiens, UniProt P10275, T878A); experiment: AR reporter assay in LNCaP cells expressing ARR2PB-FireflyLuc and CMV-RenillaLuc, antagonist mode (% remaining activity, IC50); format: cell-based; settings: 48 h at 37° C., class symbols A-D, read-out: IC50
T1 construct: LNCaP cells expressing ARR2PB-FireflyLuc and CMV-RenillaLuc; endogenous in cells; host or cells: LNCaP cells carrying ARR2PB-FireflyLuc and CMV-RenillaLuc reporters
T1 sequence (P10275 1-920 T878A): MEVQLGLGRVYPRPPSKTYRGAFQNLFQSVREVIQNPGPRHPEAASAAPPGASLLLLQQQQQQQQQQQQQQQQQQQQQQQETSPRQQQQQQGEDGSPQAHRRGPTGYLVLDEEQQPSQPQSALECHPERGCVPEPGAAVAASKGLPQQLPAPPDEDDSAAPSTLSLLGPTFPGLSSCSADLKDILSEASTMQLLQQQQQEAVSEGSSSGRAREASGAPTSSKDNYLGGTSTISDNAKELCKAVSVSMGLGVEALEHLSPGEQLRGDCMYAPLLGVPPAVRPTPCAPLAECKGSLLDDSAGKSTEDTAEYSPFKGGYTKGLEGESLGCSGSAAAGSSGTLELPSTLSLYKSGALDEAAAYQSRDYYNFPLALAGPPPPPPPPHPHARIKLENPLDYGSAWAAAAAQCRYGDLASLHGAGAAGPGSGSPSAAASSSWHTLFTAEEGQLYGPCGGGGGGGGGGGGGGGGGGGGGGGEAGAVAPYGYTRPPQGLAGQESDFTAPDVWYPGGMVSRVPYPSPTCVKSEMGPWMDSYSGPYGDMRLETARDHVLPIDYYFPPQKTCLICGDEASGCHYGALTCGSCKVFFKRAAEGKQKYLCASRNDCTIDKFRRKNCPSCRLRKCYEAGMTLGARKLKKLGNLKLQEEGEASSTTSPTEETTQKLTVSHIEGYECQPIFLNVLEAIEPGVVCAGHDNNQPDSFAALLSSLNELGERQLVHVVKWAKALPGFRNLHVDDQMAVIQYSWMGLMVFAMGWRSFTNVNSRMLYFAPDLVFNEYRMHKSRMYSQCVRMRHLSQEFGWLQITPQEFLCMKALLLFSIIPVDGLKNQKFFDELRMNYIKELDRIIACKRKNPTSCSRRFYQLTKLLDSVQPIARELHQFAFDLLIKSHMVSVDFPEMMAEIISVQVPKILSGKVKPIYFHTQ
Method in brief: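 LNCaP cells carrying ARR2PB-firefly and CMV-Renilla luciferase reporters were treated 48 h at 37 °C with compound plus 0.5 nM DHT. Signals were normalised between 0.5 nM DHT alone and 10 uM enzalutamide + DHT to give % remaining activity, and IC50 was obtained by non-linear regression.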

SMILES	IC50 [nM]
CCc1nc(-c2c[nH]c3c(C#N)cccc23)cnc1OCCN [Compound 267]	> 10000
CCc1nc(-c2c[nH]c3c(C#N)cccc23)cnc1OC1CCN(C(C)=O)C1 (stereo not drawn) [Compound 268]	100 to 1000
CC(=O)N1CCC(Oc2ncc(-c3c[nH]c4c(C#N)cccc34)nc2C(F)(F)F)C1 (stereo not drawn) [Compound 269]	100 to 1000
CC1(C)NC(=O)c2cnc(-c3c[nH]c4c(C#N)cccc34)cc21 [Compound 270]	> 10000
CC1(C)NC(=O)c2ncc(-c3c[nH]c4c(C#N)cccc34)cc21 [Compound 271]	> 10000
CC(=O)N1C[C@@H](F)[C@H](Oc2ncc(-c3c[nH]c4c(C#N)cccc34)nc2C)C1 [Compound 272]	100 to 1000
Cc1nc(-c2c[nH]c3c(Cl)cccc23)cnc1O[C@@H]1CNC[C@H]1F [Compound 273]	100 to 1000
Cc1nc(-c2c[nH]c3c(C#N)cccc23)cnc1OC1CC(N)C1 (stereo not drawn) [Compound 274]	100 to 1000
Cc1nc(-c2c[nH]c3c(C#N)cccc23)cnc1OC1CCC(N)C1 (stereo not drawn) [Compound 275]	> 10000
CC(=O)N1CCC(Oc2ncc(-c3n[nH]c4c(Cl)cccc34)nc2C)C1 (stereo not drawn) [Compound 276]	100 to 1000
Cc1nc(-c2n[nH]c3c(Cl)cccc23)cnc1OC1CCNC1 (stereo not drawn) [Compound 277]	100 to 1000
COc1nc(-c2c[nH]c3c(C#N)cccc23)cnc1OC1CCN(C(C)=O)C1 (stereo not drawn) [Compound 278]	1000 to 10000
Cc1nc(-c2c[nH]c3c(C#N)cccc23)cnc1NCC(C)(C)O [Compound 279]	100 to 1000
COc1nc(-c2c[nH]c3c(C#N)cccc23)cnc1NCC(C)(C)O [Compound 280]	100 to 1000
Cc1nc(-c2c[nH]c3c(C#N)cccc23)cnc1SC1CCNC1 (stereo not drawn) [Compound 281]	1000 to 10000
N#Cc1cccc2c(-c3cnc(OC4CCNC4)c(C4CC4)n3)c[nH]c12 (stereo not drawn) [Compound 282]	1000 to 10000
Cc1nc(-c2c[nH]c3c(C#N)cccc23)cnc1OC1CCNC1(C)C (stereo not drawn) [Compound 283]	> 10000
Cc1nc(-c2c[nH]c3c(C#N)cccc23)cnc1OC1CNC(C)(C)C1 (stereo not drawn) [Compound 284]	> 10000
Cc1nc(-c2c[nH]c3c(C#N)cccc23)cnc1O[C@H]1CCN[C@@H]1C [Compound 285]	1000 to 10000
Cc1nc(-c2c[nH]c3c(C#N)cccc23)cnc1OCC(C)(C)N [Compound 286]	1000 to 10000
Cc1nc(-c2c[nH]c3c(C#N)cccc23)cnc1OC(C)CN (stereo not drawn) [Compound 287]	100 to 1000
COc1nc(-c2c[nH]c3c(C#N)cccc23)cnc1N[C@H]1CCN(C(C)=O)C1 [Compound 288]	< 100
COc1nc(-c2c[nH]c3c(C#N)cccc23)cnc1N[C@@H]1CCN(C(C)=O)C1 [Compound 289]	< 100

SMILES	IC50 [nM]
CC(=O)N1CCC(Oc2cnc(-c3c[nH]c4c(C#N)cccc34)cn2)C1 (stereo not drawn) [Compound 290]	1000 to 10000
CC(=O)N1CCC(Oc2ncc(-c3c[nH]c4c(F)cccc34)nc2C)C1 (stereo not drawn) [Compound 291]	100 to 1000
CC(=O)N1CCC(Oc2ncc(-c3c[nH]c4ncccc34)nc2C)C1 (stereo not drawn) [Compound 292]	> 10000
COc1nc(-c2c[nH]c3ncccc23)cnc1NC1CCN(C(C)=O)C1 (stereo not drawn) [Compound 293]	> 10000
COc1nc(-c2c[nH]c3c(C#N)cccc23)cnc1N(C)C1CCN(C(C)=O)C1 (stereo not drawn) [Compound 294]	100 to 1000
CC1(C)NC(=O)c2ccc(-c3c[nH]c4c(F)cccc34)nc21 [Compound 295]	100 to 1000
Cc1nc(-c2c[nH]c3c(Cl)cccc23)cnc1OC1CCNC1 (stereo not drawn) [Compound 296]	< 100
Cc1nc(-c2c[nH]c3c(C#N)cccc23)cnc1O[C@@H]1CNC[C@@H]1F [Compound 297]	100 to 1000
Cc1nc(-c2c[nH]c3c(=O)n(C)ccc23)ccc1OC1CCNC1 (stereo not drawn) [Compound 300]	> 10000
Cc1nc(-c2c[nH]c3c(C#N)cccc23)cnc1OCC(C)(C)O [Compound 301]	< 100
Cc1nc(-c2c[nH]c3c(C#N)cccc23)cnc1OC(C)CN (stereo not drawn) [Compound 303]	100 to 1000
CCc1nc(-c2c[nH]c3c(C#N)cccc23)cnc1OC1CCNC1 (stereo not drawn) [Compound 305]	> 10000
COc1nc(-c2c[nH]c3c(C#N)cccc23)cnc1OC1CCN(C(C)=O)C1 (stereo not drawn) [Compound 306]	1000 to 10000
CSc1nc(-c2c[nH]c3c(C#N)cccc23)cnc1OC1CCNC1 (stereo not drawn) [Compound 307]	> 10000
Cc1nc(-c2c[nH]c3c(C#N)cccc23)cnc1OC1(C)CCNC1 (stereo not drawn) [Compound 308]	1000 to 10000
Cc1nc(-c2coc3cc(F)ccc23)cnc1N [Compound 309]	100 to 1000
Cc1nc(-c2coc3c(C#N)cccc23)cnc1N [Compound 310]	> 10000
CC(=O)N1CCC(Oc2ncc(-c3c[nH]c4cccnc34)nc2C)C1 (stereo not drawn) [Compound 311]	> 10000
CC(=O)N1CCC(Oc2ncc(-c3n[nH]c4c(C#N)cccc34)nc2C)C1 (stereo not drawn) [Compound 312]	1000 to 10000
CC(=O)N1CCC(Oc2ncc(-c3c[nH]c4c(C)cccc34)nc2C)C1 (stereo not drawn) [Compound 313]	1000 to 10000
Cc1cccc2c(-c3ccc4c(n3)C(C)(C)NC4=O)c[nH]c12 [Compound 314]	100 to 1000
CC1(C)NC(=O)c2ccc(-c3c[nH]c4ncccc34)nc21 [Compound 315]	100 to 1000
COc1nc(-c2c[nH]c3c(C#N)cccc23)ccc1C(N)=O [Compound 316]	> 10000

SMILES	IC50 [nM]
COCCN1CCC(Oc2ncc(-c3c[nH]c4c(C#N)cccc34)nc2C)C1 (stereo not drawn) [Compound 317]	1000 to 10000
COCC(=O)N1CCC(Oc2ncc(-c3c[nH]c4c(C#N)cccc34)nc2C)C1 (stereo not drawn) [Compound 318]	100 to 1000
Cc1nc(-c2c[nH]c3c(C#N)cccc23)cnc1OC1CNCC1(F)F (stereo not drawn) [Compound 322]	1000 to 10000
CC(=O)N1CC(Oc2ncc(-c3c[nH]c4c(C#N)cccc34)nc2C)C(F)(F)C1 (stereo not drawn) [Compound 323]	100 to 1000
Cc1nc(-c2c[nH]c3c(C#N)cccc23)ccc1OCC(C)(C)O [Compound 324]	1000 to 10000
Cc1nc(-c2c[nH]c3c(C#N)cccc23)cnc1OCC1(C)COC1 [Compound 325]	100 to 1000
Cc1nc(-c2c[nH]c3c(C#N)cccc23)cnc1N(C)CC(C)(C)O [Compound 326]	1000 to 10000
CCN(CC(C)(C)O)c1ncc(-c2c[nH]c3c(C#N)cccc23)nc1C [Compound 327]	1000 to 10000
Cc1nc(-c2c[nH]c3c(C#N)cccc23)cnc1O[C@H]1CN[C@@H](C)C1 [Compound 328]	> 10000
Cc1nc(-c2c[nH]c3c(C#N)cccc23)cnc1O[C@H]1CN[C@H](C)C1 [Compound 329]	> 10000
Cc1nc(-c2c[nH]c3c(C#N)cccc23)cnc1O[C@@H]1CN[C@@H](C)C1 [Compound 330]	> 10000
Cc1nc(-c2c[nH]c3c(C#N)cccc23)cnc1O[C@@H]1CN[C@H](C)C1 [Compound 331]	> 10000
Cc1nc(-c2c[nH]c3c(F)cccc23)cnc1OCC(C)(C)O [Compound 332]	1000 to 10000
Cc1nc(-c2c[nH]c3c(C#N)cccc23)cnc1OCC1(O)CC1 [Compound 333]	> 10000
Cc1nc(-c2c[nH]c3c(C#N)cccc23)cnc1O[C@@H](C)[C@H](C)O [Compound 334]	1000 to 10000
Cc1nc(-c2c[nH]c3c(C#N)cccc23)cnc1O [Compound 335]	1000 to 10000
Cc1nc(-c2csc3cc(F)ccc23)cnc1OCC(C)(C)O [Compound 336]	100 to 1000
Cc1nc(-c2coc3c(Cl)cccc23)cnc1OCC(C)(C)O [Compound 337]	100 to 1000
Cc1nc(-c2coc3ccccc23)cnc1OCC(C)(C)O [Compound 338]	> 10000
Cc1nc(-c2c[nH]c3c(C#N)cccc23)cnc1OCCO [Compound 340]	> 10000
Cc1nc(-c2c[nH]c3c(C#N)cccc23)cnc1OCC(C)O (stereo not drawn) [Compound 341]	1000 to 10000
CC(C)(O)COc1ncc(-c2c[nH]c3c(C#N)cccc23)nc1C1CC1 [Compound 342]	> 10000
Cc1nc(-c2c[nH]c3c(Cl)nccc23)cnc1OCC(C)(C)O [Compound 343]	> 10000
